What was measured:
SUM159 cells = assay: Cell cycle analysis of SUM159 cells synchronized with nocodazole in G2/M; type: cell-based, human
Procedure: Cell cycle analysis was performed 72 hr after JQ1 treatment or BRD4 downregulation with doxycycline using propidium iodide (PI) staining. Cells were resuspended in 1 ml of growth medium supplemented with 2 μg/ml PI (Life Technologies) as final concentration. After 60 min at 37° C. in the dark, analysis was performed on a FACS AriaII cytometer (BD Biosciences). The cell cycle was plotted as histogram after excluding doublets. Cell synchronization Procedure. SUM159 cells were treated with nocodazole (200 ng/ml) for 12 h and then cells were tapped to detach from the plates. After washing twice with PBS, cells were replated with or without JQ1 in collagen coated plates. Cells were collected at 0, 3, 6, 12 h time point for FACS and immunoblot analysis.

[1] = system: pSTAT3, pJAK2 and MYC in SUM159 cells; assay: Immunoblot kinetic study of signaling factors after JQ1; type: cell-based, human
Description: Immunoblotting and immunoprecipitation experiments were repeated 2-3 times.

[2] = system: TNBC cells (SUM159 and MDA-MB-231); assay: Senescence β-galactosidase staining; type: cell-based, human; settings: JQ1 500 nM, 72 h
Procedure: Cell viability and growth assays (FIGS. 1A-1B, FIGS. 3A-3E, 3G, FIGS. 5D-5F, FIGS. 6C, 6E, 6I, FIG. 7A, FIG. 10D, FIGS. 14A-14C), cycle, apoptosis, and MDR assays were performed in triplicates and repeated 2-3 times. For cell proliferation assays, cells were plated at 500 cells per well in 96-well plates and treated the next day with inhibitors, DMSO or doxycycline (500 ng). Cells were cultured at 37° C. with 5% CO2 in the media described-above, and cell viability was measured using CellTiter-Glo three days after treatments. For cell growth assays, cells were plated at 5000 (SUM159) or 20000 (SUM149) cells per well in 6-well plates and treated the next day with inhibitors. Cells were counted every three days by cell counter. Cellular apoptosis was analyzed with an APC AnnexinV/7ADD Apoptosis Detection kit (BD Pharmingen). AnnexinV/7AAD assessments and cell cycle graphics were generated using FlowJo software V7.6.1 for Windows (Tree Star). Senescence Beta-gal staining was performed using Senescence β-Galactosidase staining kit from Cell signaling. Briefly, after JQ1 treatment (500 nM) for 72 h, SUM159 and MDA-MB-231 cells were fixed by Fixative Solution for 15 min, followed by β-Galactosidase solution incubation overnight at 37° C. The staining was checked under microscope for the development of blue color. […] The cells were analyzed by fluorescent microscope and FACS.

TNBC cells = assay: Immunofluorescence microscopy for basal and luminal markers; type: cell-based, human; settings: 3 days after JQ1 (500 nM)
Procedure: Antibodies used for immunofluorescence were CK18 (Dako, M7010), CK17 (Dako, M7046), HMW (Dako, M0630), LMW (Dako, M0631), CD44 (NeoMarkers, MS-668-P1), CD24 (NeoMarkers, MS-1279-P1), p-STAT3 (Cell Signaling, 9145S), VIM (Dako, M073501), CDH1 (BD Biosciences, 610181), FLAG (Sigma, F1804), BrdU (Roche, 11170376001). Immunofluorescence experiments were performed in cultured cells or in whole sections of formalin-fixed paraffin embedded (FFPE) xenograft tumors. The staining was performed as described^50. Antibody dilutions were as follows: pSTAT3 (1:25), CD44 (1:100), CD24 (1:100), CK18 (1:200), CK17 (1:200), HMK (1:200), LMK (1:200), VIM (1:100), CDH1 (1:100), FLAG (1:50), and BrdU (1:200).

SUM159 and SUM149 cells = assay: RNA-seq following JQ1 treatment; type: cell-based, human; settings: different time points following JQ1 500 nM
Procedure: Quantifying changes in gene expression of SE proximal genes. Genes within 50 kb of SE in SUM159 or SUM149 were identified and filtered for expression status (>1 FPKM expression in any sample), and filtered to remove non poly-adenylated transcripts (e.g. microRNAs). For SUM159, log2 fold changes in gene expression at SE associated genes or all expressed genes was compared at 3, 12, and 24 hours post JQ1 treatment (FIG. 2F). For SUM149, comparisons were made at 12 hours post JQ1 treatment (Extended Data FIG. 3B). The statistical significance of differences between distributions of changes was also assessed using a Welch's two-tailed t test.

[3] = biological target: chromatin-bound BRD4 in SUM159 cells (Homo sapiens, UniProt O60885); settings: SUM159, JQ1 exposure
Procedure: Chem-seq was performed essentially as described^27. ChIP-seq: SUM159 and SUM159R cells (4×10^7) were grown in SUM Medium. The media were then removed and replaced with media containing 1% formaldehyde (EM grade; tebu-bio) and crosslinked for 8 min. Crosslinking was quenched by adding glycine to a final concentration of 0.2 M. The cells were washed with ice-cold PBS, harvested in PBS, and the cell pellet was washed with PBS. The nuclear fraction was extracted by first resuspending the pellet in 10 ml of LB1 buffer (50 mM HEPES-KOH [pH 7.5], 140 mM NaCl, 1mMEDTA, 10% glycerol, 0.5% NP-40 or Igepal CA-630, and 0.25% Triton X-100) for 10 min at 4° C. Cells were pelleted, resuspended in 10 ml of LB2 buffer (10 mM Tris-HCL [pH 8.0], 200 mM NaCl, 1 mM EDTA, and 0.5 mM EGTA), and mixed for 5 min. Cells were pelleted and resuspended in 300 μl of LB3 buffer (10 mM Tris-HCl [pH 8], 100 mM NaCl, 1 mM EDTA, 0.5 mM EGTA, 0.1% Na-deoxycholate, and 0.5% N-lauroylsarcosine) and sonicated in a covaris sonicator for 10 min. A total of 30 μl of 10% Triton X-100 was added, and lysate was centrifuged for 10 min at 20,000 rcf to purify the debris. The supernatant was then incubated with 100 μl of magnetic beads (Life Technologies) prebound with 20 μg BRD4 antibody (Bethyl, A301-985A), and immunoprecipitation (IP) was conducted overnight in the cold room. […]

[4] = biological target: BRD4-MED1 association in SUM159 cells (Homo sapiens, UniProt O60885); assay: BRD4 immunoprecipitation followed by immunoblot for MED1, resistant cells; type: cell-based; set-up: Observations from RIME data were pursued by BRD4 immunoprecipitation followed by immunoblot analysis for MED1 and BRD3; endogenous in cells; host or cells: SUM159 and SUM159R cells (nuclear extracts); settings: resistant cells
Procedure: Cells were lysed five days after transfection with siRNAs in RIPA buffer. Proteins were resolved in SDS-polyacrylamide gels (4%-12%) and transferred to PVDF membranes by using a Tris-glycine buffer system. […] Cells were incubated on ice for 15 min and gently vortexed every 5 min. […] After centrifugation of the lysates at 14 g for 10 min at 4° C., supernatant was diluted with 0.6 ml buffer A, and added NP-40 to final 0.5% and treated with DNase I. The samples were then incubated at 4° C. overnight with BRD4 or Flag antibodies at 1:100 dilution and immunoprecipitates were collected on Dynabeads Protein G for 2 hr. Beads were washed with buffer B containing 150 mM NaCl and 0.5% NP-40 three times and then resuspended in gel loading buffer. Immunoblotting and immunoprecipitation experiments were repeated 2-3 times.

Cc1sc2c(c1C)C(c1ccc(Cl)cc1)=N[C@@H](CC(=O)OC(C)(C)C)c1nnc(C)n1-2 [JQ1]
Cell cycle after release from G2/M (SUM159 cells; JQ1 (500 nM) added 3 hours after release): less pronounced effects
Cell cycle after release from G2/M (SUM159 cells; JQ1 (500 nM) administered 1 hour before release): arrested in early G1 with high cyclin D1 levels
pSTAT3 and pJAK2 levels ([1]; SUM159, after 12 hours): decrease in pSTAT3 and pJAK2
MYC level ([1]; SUM159, at 24 hours): dose-responsive decrease in MYC
Acidic β-galactosidase activity (senescence) [2]: markedly increased acidic β-galactosidase activity
Basal markers (HMW cytokeratins) (TNBC cells): decrease of high molecular-weight (HMW) cytokeratins
Luminal markers (LMW cytokeratins, CK18) (TNBC cells): elevation of low molecular-weight (LMW) cytokeratins and cytokeratin 18 (CK18)
Expression of super-enhancer associated genes versus all active genes (SUM159 and SUM149 cells): significantly more likely to be down-regulated
BRD4 occupancy at Chem-seq-defined SE regions [3]: depleted of BRD4
Association of BRD4 with MED1 [4]: had no such effect

From US11666580B2, “Mechanism of resistance to bet bromodomain inhibitors” (Dana-Farber Cancer Institute, Inc., priority 2015, dated 2023)
